Data as given in patent publication US12419931B2, “Anti-cancer composition” (ACUPHARM INTERNATIONAL PROPRIETARY LIMITED, priority 2020, dated 2025).

System: cultured tissue from needle biopsy, Breast DCIS papillary neoplasm
Test: dose response study with cumulative cell death on cultured patient biopsy tissue (patient 19055)
Type: cell-based, human
Conditions: in vitro cultured biopsy sample, patient 19055, Breast DCIS papillary neoplasm
Protocol: Comparative studies were performed using curcumin extract as described above (referred to as ACPJL 08), Sutherlandia leaf extract in water (referred to as ACPJL 35), Sutherlandia leaf extract in 50% ethanol and water solution (referred to as ACPJL 28), Sutherlandia leaf extract in 90% ethanol and water solution (referred to as ACPJL 07) and a combinatorial formulation using the curcumin extract and Sutherlandia leaf extract in water and alcohol according to this invention (referred to as ACPJL 20). These extracts were compared to a number of known botanical isolates with anti-cancer activity, as well as a number of known anti-cancer drugs, using a dose response design with cumulative cell death as the dependent variable. These studies were conducted on in vitro samples of cultured tissue, taken as biopsy samples from patients as part of a standard culture and testing process done in order to optimise treatment.
A representative sample of such a study is provided herein below.
Summary of Study of Patient with Assigned Number 19055
Patient from whom sample was obtained was a person presenting with a diagnosis of Breast DCIS papillary neoplasm. The sample was obtained via needle biopsy, before being cultured.

| Compound | overall assessment in standard culture and testing process |
| --- | --- |
| COc1cc2c(Oc3ccc4[nH]c(C)cc4c3F)ncnc2cc1OCCCN1CCCC1 [Cediranib] | potential benefit |
| Nc1nc(Cl)nc2c1ncn2[C@@H]1O[C@H](CO)[C@@H](O)[C@@H]1F [Clofarabine] | potential benefit |
| CC(=O)O[C@@]12CO[C@@H]1C[C@H](O)[C@@]1(C)C(=O)[C@H](O)C3=C(C)[C@@H](OC(=O)[C@H](O)[C@@H](NC(=O)OC(C)(C)C)c4ccccc4)C[C@@](O)([C@@H](OC(=O)c4ccccc4)[C@H]21)C3(C)C [Docetaxel] | potential benefit |
| COc1cc2ncnc(Nc3ccc(F)c(Cl)c3)c2cc1OCCCN1CCOCC1 [Gefitinib] | potential benefit |
| O=C1c2c(O)ccc(O)c2C(=O)c2c(NCCNCCO)ccc(NCCNCCO)c21 [Mitoxantrone] | potential benefit |
| COC(=O)c1ccc2c(c1)NC(=O)/C2=C(\Nc1ccc(N(C)C(=O)CN2CCN(C)CC2)cc1)c1ccccc1 [Nintedanib] | good efficacy and a positive dose response curve |
| CC(=O)O[C@H]1C(=O)[C@@]2(C)[C@H]([C@H](OC(=O)c3ccccc3)[C@]3(O)C[C@H](OC(=O)[C@H](O)[C@@H](NC(=O)c4ccccc4)c4ccccc4)C(C)=C1C3(C)C)[C@]1(OC(C)=O)CO[C@@H]1C[C@@H]2O [Paclitaxel] | potential benefit |
| CC[C@]1(O)C[C@H]2CN(CCc3c([nH]c4ccccc34)[C@@](C(=O)OC)(c3cc4c(cc3OC)N(C=O)[C@H]3[C@@](O)(C(=O)OC)[C@H](OC(C)=O)[C@]5(CC)C=CCN6CC[C@]43[C@@H]65)C2)C1 [Vincristine] | potential benefit |
| CCC1=C[C@@H]2CN(C1)Cc1c([nH]c3ccccc13)[C@@](C(=O)OC)(c1cc3c(cc1OC)N(C)[C@H]1[C@@](O)(C(=O)OC)[C@H](OC(C)=O)[C@]4(CC)C=CCN5CC[C@]31[C@@H]54)C2 [Vinorelbine] | potential benefit |
| O=C(CCCCCCC(=O)Nc1ccccc1)NO [Vorinostat] | potential benefit |
